Calls of active or inactive are those of the source. The calls are words filed in the database; no cut-off is given here.
Key:
[1] = biological target: T1, 5-hydroxytryptamine receptor 1A (Homo sapiens) (UniProt P08908); settings: HeLa
T1 sequence (whole entry): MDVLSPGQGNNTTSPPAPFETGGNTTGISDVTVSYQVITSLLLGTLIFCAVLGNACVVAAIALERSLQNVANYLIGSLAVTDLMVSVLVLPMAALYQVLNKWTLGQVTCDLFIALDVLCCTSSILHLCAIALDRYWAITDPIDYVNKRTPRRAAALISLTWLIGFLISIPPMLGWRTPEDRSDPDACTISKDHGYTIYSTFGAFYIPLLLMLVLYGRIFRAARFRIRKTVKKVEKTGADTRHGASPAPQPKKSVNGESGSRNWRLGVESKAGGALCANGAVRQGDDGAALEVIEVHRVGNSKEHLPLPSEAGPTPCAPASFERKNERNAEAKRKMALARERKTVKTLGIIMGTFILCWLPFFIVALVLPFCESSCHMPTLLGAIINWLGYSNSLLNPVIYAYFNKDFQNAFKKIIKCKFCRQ

[2] = biological target: T2, Alpha-1D adrenergic receptor (Homo sapiens, UniProt P25100); assay: biochemical
T2 sequence (P25100 whole entry): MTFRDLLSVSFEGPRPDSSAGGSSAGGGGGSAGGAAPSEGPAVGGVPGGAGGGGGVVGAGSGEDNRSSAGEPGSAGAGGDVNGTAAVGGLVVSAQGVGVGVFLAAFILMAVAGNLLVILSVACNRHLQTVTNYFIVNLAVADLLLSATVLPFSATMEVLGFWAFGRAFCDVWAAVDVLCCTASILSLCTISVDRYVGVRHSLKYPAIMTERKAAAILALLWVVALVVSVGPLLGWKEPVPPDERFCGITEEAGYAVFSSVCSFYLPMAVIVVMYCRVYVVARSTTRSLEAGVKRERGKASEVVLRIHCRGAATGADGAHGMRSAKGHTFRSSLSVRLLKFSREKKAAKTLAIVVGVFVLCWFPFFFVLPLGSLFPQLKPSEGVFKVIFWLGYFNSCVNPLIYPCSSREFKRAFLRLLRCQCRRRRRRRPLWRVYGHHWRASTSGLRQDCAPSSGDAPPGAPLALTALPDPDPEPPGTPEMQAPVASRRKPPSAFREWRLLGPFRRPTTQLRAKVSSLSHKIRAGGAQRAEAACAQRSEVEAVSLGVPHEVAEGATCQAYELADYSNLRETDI
Description: Displacement of [3H] prazosin from human cloned adrenoceptor alpha 1D expressed in CHO cell membrane incubated for 30 mins by liquid scintillation counter

[3] = biological target: T3, Alpha-1B adrenergic receptor (Rattus norvegicus) (UniProt P15823); assay: Antagonist activity at alpha-1b adrenergic receptor in Wistar rat spleen assessed as inhibition of (-)-phenylephrine-induced contraction; assay type: tissue-based
T3 sequence (whole entry): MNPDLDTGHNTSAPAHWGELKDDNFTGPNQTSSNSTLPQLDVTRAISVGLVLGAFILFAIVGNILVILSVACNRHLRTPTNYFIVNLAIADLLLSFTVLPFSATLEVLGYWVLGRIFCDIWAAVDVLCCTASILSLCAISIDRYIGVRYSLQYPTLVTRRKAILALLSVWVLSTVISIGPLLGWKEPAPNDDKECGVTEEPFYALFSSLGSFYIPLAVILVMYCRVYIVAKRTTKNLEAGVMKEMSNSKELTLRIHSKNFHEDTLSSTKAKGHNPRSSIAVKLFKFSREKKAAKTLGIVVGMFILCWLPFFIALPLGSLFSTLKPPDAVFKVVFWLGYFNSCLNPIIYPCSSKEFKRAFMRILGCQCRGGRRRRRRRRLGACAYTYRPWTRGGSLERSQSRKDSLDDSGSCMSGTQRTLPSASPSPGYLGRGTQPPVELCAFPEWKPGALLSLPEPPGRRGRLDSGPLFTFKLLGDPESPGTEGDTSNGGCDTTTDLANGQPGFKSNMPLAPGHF

Rattus norvegicus [4] = assay: Anxiolytic activity in at Sprague-Dawley rat assessed as increase in time spent in central area of open field at 10 mg/kg, po by open field test; assay type: functional, organism-based
[5] = Cmax in Sprague-Dawley rat brain at 10 mg/kg, po measured upto 480 mins by LC/MS-MS analysis; assay type: ADME, organism-based; parameters: dose 10 mg/kg, route oral; settings: in vivo, 8 h
Rattus norvegicus [6] = assay: Antidepressant activity in Sprague-Dawley rat assessed as time spent on climbing at 5 to 20 mg/kg, po by forced swim test; assay type: functional, organism-based
Rattus norvegicus [7] = assay: Antidepressant activity in Sprague-Dawley rat assessed as increase in time spent in swimming at 10 and 20 mg/kg, po by forced swim test; assay type: functional, organism-based
Rattus norvegicus [8] = assay: Anxiolytic activity in at Sprague-Dawley rat assessed as increase in number of entries into central area of open field at 10 mg/kg, po by open field test; assay type: functional, organism-based
Rattus norvegicus [9] = assay: Anxiolytic activity at Sprague-Dawley rat assessed as increase in number of open arm entries at 10 to 20 mg/kg, po by EPM test; assay type: functional, organism-based
Homo sapiens = organism: Homo sapiens; assay: Selectivity ratio of pKi for human cloned 5HT-1AR transfected in HeLa cells to pKi for human cloned adrenoceptor alpha 1D expressed in CHO cell membrane; assay type: cell-based
[10] = Half life in Sprague-Dawley rat plasma at 10 mg/kg, po measured upto 480 mins by LC/MS-MS analysis; assay type: ADME, organism-based
Rattus norvegicus [11] = assay: Antidepressant activity in Sprague-Dawley rat assessed as decrease in time of immobilization at 10 and 20 mg/kg, po by forced swim test; assay type: functional, organism-based
SH-SY5Y [12] = assay: Neuroprotective activity against oligomycin A-induced cell death in human SH-SY5Y cells at 0.1 uM incubated for 24 hrs by MTT assay; assay type: functional
Rattus norvegicus [13] = assay: Effect on locomotory activity in Sprague-Dawley rat assessed as distance travelled at 10 mg/kg, po by open field test; assay type: functional, organism-based
[14] = Ratio of compound t1/2 to 8-OH-DPAT t1/2 in Sprague-Dawley rat plasma at 10 mg/kg, po measured upto 480 mins by LC/MS-MS analysis; assay type: ADME, organism-based; settings: in vivo, 8 h
SH-SY5Y [15] = assay: Neuroprotective activity against rotenone-induced cell death in human SH-SY5Y cells at 0.1 uM incubated for 24 hrs by MTT assay; assay type: functional
Rattus norvegicus [16] = assay: Anxiolytic activity at Sprague-Dawley rat assessed as decrease in time spent in closed arm at 5 to 20 mg/kg, po by EPM test; assay type: functional, organism-based
Mus musculus = assay: Antinociceptive activity in formalin-induced nociception pain Swiss […] mouse model assessed as decrease in perception of II phase of noxious stimulus at 10 mg/kg, ip by formalin test; assay type: functional, organism-based
[17] = Ratio of drug level in brain to plasma in Sprague-Dawley rat at 10 mg/kg, po measured upto 480 mins by LC/MS-MS analysis; assay type: ADME, organism-based; settings: read-out: BPR
[18] = AUC (0 to t) in Sprague-Dawley rat brain at 10 mg/kg, po measured upto 480 mins by LC/MS-MS analysis; assay type: ADME, organism-based; settings: in vivo, 8 h
[19] = Efflux ratio of apparent permeability from basolateral to apical side over apical to basolateral side in dog MDCK2-MDR1 cells incubated for 120 mins by UV-visible spctrophotometry; assay type: ADME, cell-based, Canis lupus familiaris; settings: MDCK-MDR1
[20] = Apparent permeability from basolateral to apical side in dog MDCK2-MDR1 cells incubated for 120 mins by UV-visible spectrophotometry; assay type: ADME, cell-based, Canis lupus familiaris; settings: MDCK-MDR1

Compound	pD2 [1]	Ki [2] [nM]	pKb [3]	other results
c1ccc(OCCNCCOC(c2ccccc2)c2ccccc2)cc1	7.85	1.2	7.01	
OCC(CNCCOc1ccccc1)OC(c1ccccc1)c1ccccc1 (configuration not stated)	7.51	57.5	6.98	
COc1ccccc1OCCNCCOC(c1ccccc1)c1ccccc1	7.38	10	7.11	
COc1ccccc1OCCNCC[C@@H]1CO[C@H](C(c2ccccc2)c2ccccc2)O1 (relative stereo)	5.86	16.6	6.91	
COc1ccccc1OCCNCC1COC(c2ccccc2)(c2ccccc2)OC1.O=C(O)C(=O)O	9.22	25.1	6.8	Activity (Rattus norvegicus [4]): Active; Cmax [5]: 157.9 nmol/g; Activity (Rattus norvegicus [6]): inactive; Activity (Rattus norvegicus [7]): Active; Activity (Rattus norvegicus [8]): Active; Activity (Rattus norvegicus [9]): Active; Ratio pKi (Homo sapiens): 16; half-life [10]: 103 min; inhibition (Rattus norvegicus [11]): Active; Activity (SH-SY5Y [12]): 69%; Activity (Rattus norvegicus [13]): inactive; Ratio [14]: 3; Activity (SH-SY5Y [15]): 63%; inhibition (Rattus norvegicus [16]): Active; inhibition (Mus musculus): Active; Kp at 8 h [17]: 420; AUCt [18]: 7167.6 nmol·min/g; efflux ratio at 2 h [19]: 0.49; Papp B→A at 2 h [20]: 12.6 ×10⁻⁶ cm/s

The remaining molecules from weak to strong by Ki [2], led by results:

pD2 [1]	Ki [2] [nM]	pKb [3]	Compound	other results
5.87	178	6.76	c1ccc(OCCNCC2COC(c3ccccc3)(c3ccccc3)OC2)cc1	
6.24	15.8	7.13	COc1ccccc1OCCNCC[C@H]1CO[C@H](C(c2ccccc2)c2ccccc2)O1 (relative stereo)	
7.53	5.89	7.02	COc1ccccc1OCCNCC(CO)OC(c1ccccc1)c1ccccc1 (configuration not stated)	
6.16	5.75	6.93	COc1ccccc1OCCNCCC1COC(c2ccccc2)(c2ccccc2)O1 (configuration not stated)	
7.85	5.01	6.97	c1ccc(OCCNCC2CCOC(c3ccccc3)(c3ccccc3)O2)cc1 (configuration not stated)	
8.49	1.02	7.19	COc1ccccc1OCCNCC1CCOC(c2ccccc2)(c2ccccc2)O1 (configuration not stated)	

— ChEMBL document CHEMBL4350985, “1,3-Dioxane as a scaffold for potent and selective 5-HT1AR agonist with in-vivo anxiolytic, anti-depressant and anti-nociceptive activity” (Eur J Med Chem, 2019)
